In paper PMC6615598, “Novel antibiotics effective against gram-positive and -negative multi-resistant bacteria with limited resistance” (PLoS Biology, 2019):
Read-outs that look alike come from different tables or passages of the source. Starred links: 1 amine or outer side, 2 acyl side, 3 side chain; linkers in the order of their positions; H or OH if unused. Non-standard residues stand in square brackets, D forms with d. Residues, ends and D or L forms follow the SMILES beside them. azaβ3(1Nal) = O=C(CN(Cc1cccc2ccccc12)N[*:1])[*:2]

Tests used:
[1] = test system: Escherichia coli 13090
Summary of the method: (§1)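 Broth microdilution in MHB or CAMHB with an inoculum of 5 × 10^5 CFU/well; compounds were tested from 1 to 128 μM. Plates were incubated 18–20 h at 35°C (±2°C) and read spectrophotometrically. MIC and MBC were determined in triplicate.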

[2] = test system: P. aeruginosa PA14; conditions: PA14
Summary of the method: as §1

[3] = test system: A. baumanii 11896
Summary of the method: as §1

[4] = test system: P. aeruginosa 15637; conditions: 15637
Summary of the method: as §1

[5] = test system: Escherichia coli 293; conditions: 293
Summary of the method: as §1

[6] = test system: Escherichia coli 444; conditions: 444
Summary of the method: as §1

[7] = test system: P. aeruginosa 15644
Summary of the method: as §1

[8] = test system: Escherichia coli 508
Summary of the method: as §1

[9] = test system: P. aeruginosa 15641; conditions: 15641
Summary of the method: as §1

[10] = test system: P. aeruginosa 15643
Summary of the method: as §1

[11] = test system: Escherichia coli 750
Summary of the method: as §1

[12] = test system: Enterobacter cloacae ATCC13047; conditions: ATCC13047
Summary of the method: as §1

[13] = test system: Escherichia coli K12; conditions: K12
Summary of the method: as §1

[14] = test system: K. pneumoniae 13829; conditions: 13829
Summary of the method: as §1

[15] = test system: E. faecium Aus0004
Summary of the method: as §1

[16] = test system: Escherichia coli 758; conditions: 758
Summary of the method: as §1

[17] = test system: Escherichia coli PV; conditions: PV
Summary of the method: as §1

[18] = test system: Escherichia coli 283; conditions: 283
Summary of the method: as §1

[19] = test system: P. aeruginosa 15638
Summary of the method: as §1

[20] = test system: S. aureus PM64; test: microbe, parasite or virus in culture
Procedure: (§2) (10−4 M final concentrations). At selected time intervals, 100 μl of reaction mixture was collected, quenched by 200 μl 95% EtOH, and adjusted at pH 2 to prevent peptide adsorption to serum proteins. […] Supernatants were analyzed by RP-HPLC on an Xbridge C18 column with a linear gradient of water, 0.08% TFA, and acetonitrile with 1% TFA. HPLC peak areas were used to calculate the percentages of intact compound remaining at the various time points. MIC and MBC values were determined in triplicate in many ESKAPE clinical isolates, including a dozen MDR S. aureus, by the broth microdilution method. Peptidomimetics and antibiotics were assayed in a concentration range of 1 to 128 μM. The bacterial inoculum (5 × 10^5 colony-forming units [CFUs]/well) was prepared in MHB or CAMHB (150 μl). A Biotek Synergy 2 spectrophotometer was used to record the results after 18–20 h incubation at 35°C (±2°C). […] After every hour of culture for 4 h, serial dilutions were plated on BHI plates and incubated overnight at 37°C, and then the CFUs were counted and expressed as log CFU/ml. Phosphate-buffered saline (PBS)-exposed S. aureus MRSA was included as a control.
(§3) Supplementary file pbio.3000337.s007.docx: S1 Table Antibacterial activity of the 4 peptidomimetics focusing on 9 S. aureus MDR clinical isolates. Clinical isolates BCB/POE and 740404 DUN are from human sepsis. The other strains are from catheter infections or suppurating wounds. Brilacidin was used as a control. MDR, multidrug resistant. (DOCX) Click here for additional data file.

[21] = test system: S. aureus FORT; test: microbe, parasite or virus in culture
Procedure: as §2, §3

[22] = test system: S. aureus 702697 HOU; test: microbe, parasite or virus in culture
Procedure: as §2, §3

[23] = test system: S. aureus COB; test: microbe, parasite or virus in culture
Procedure: as §2, §3

[24] = test system: S. aureus BCB/POE; test: microbe, parasite or virus in culture
Procedure: as §2, §3

[25] = test system: S. aureus 740404 DUN; test: microbe, parasite or virus in culture
Procedure: as §2, §3

[26] = test system: S. aureus ROUS; test: microbe, parasite or virus in culture
Procedure: as §2, §3

[27] = test system: S. aureus 66534 E; test: microbe, parasite or virus in culture
Procedure: as §2, §3

[28] = Stability in human serum (half-life); format: in vitro ADME; conditions: 25% human serum, pre-incubated 15 min at 37°C, peptide 10^−4 M, RP-HPLC peak areas, mean of biological triplicates
Procedure: as §2
Supplementary file pbio.3000337.s013.docx: S7 Table Peptide half-lives in human and mouse sera. […] Peptide amounts and half-lives were determined by HPLC. Experiments were conducted on 25% human or mouse sera. Values are shown in minutes. The mean values correspond to biological triplicates. HPLC, high pressure liquid chromatography. (DOCX) Click here for additional data file.

## CC(C)[C@@H]1NC(=O)[C@H](CCCNC(=N)N)NC(=O)[C@H](CCCNC(=N)N)NC(=O)[C@H](Cc2c[nH]c3ccccc23)NC(=O)[C@H](Cc2ccccc2)NC(=O)[C@H](Cc2ccccc2)NC(=O)[C@H](CCCCN)NC1=O [Pep18] (cyclo(FFWRRVK))
[1]; E. coli 13090, clinical strain, Caen hemoculture, broth microdilution, 3 independent experiments
  MIC: 16 (16.4) μM
[2]
  MIC: 8 (8.2) μM
[3]
  MIC: >128 µM
[4]
  MIC: 8 (8.2) μM
[5]
  MIC: 32 (32.8) μM
[6]
  MIC: 32 (32.8) μM
[7]; P. aeruginosa 15644, clinical strain, Caen hemoculture, broth microdilution, 3 independent experiments
  MIC: 64 (65.6) μM
[8]; E. coli 508, clinical strain, Rennes urinary catheter, broth microdilution, 3 independent experiments
  MIC: 64 (65.6) μM
[9]
  MIC: 32 (32.8) μM
[10]; P. aeruginosa 15643, clinical strain, Caen hemoculture, broth microdilution, 3 independent experiments
  MIC: 16 (16.4) μM
[11]; E. coli 750, clinical strain, Rennes urinary catheter, broth microdilution, 3 independent experiments
  MIC: 16 (16.4) μM
[12]
  MIC: 128 (131.2) μM
[13]
  MIC: 16 (16.4) μM
[14]
  MIC: >128 µM
[15]; E. faecium Aus0004, broth microdilution, 3 independent experiments
  MIC: 64 (65.6) μM
[16]
  MIC: 32 (32.8) μM
[17]
  MIC: 32 (32.8) μM
[18]
  MIC: 32 (32.8) μM
[19]; P. aeruginosa 15638, clinical strain, Caen hemoculture, broth microdilution, 3 independent experiments
  MIC: 64 (65.6) μM
[20]; MDR S. aureus clinical isolate PM64
  MIC: 32 mg/L^-1
[21]; MDR S. aureus clinical isolate FORT
  MIC: >32 mg/L^-1
[22]; MDR S. aureus clinical isolate 702697 HOU
  MIC: 16 mg/L^-1
[23]; MDR S. aureus clinical isolate COB
  MIC: 32 mg/L^-1
[24]; MDR S. aureus clinical isolate BCB/POE, human sepsis
  MIC: 32 mg/L^-1
[25]; MDR S. aureus clinical isolate 740404 DUN, human sepsis
  MIC: 32 mg/L^-1
[26]; MDR S. aureus clinical isolate ROUS
  MIC: 8 mg/L^-1
[27]; MDR S. aureus clinical isolate 66534 E
  MIC: 32 mg/L^-1
[28]
  half-life: 16.3 ± 1.67 h

## CC(C)[C@@H]1NC(=O)[C@H](CCCNC(=N)N)NC(=O)[C@H](CCCNC(=N)N)NC(=O)CN(Cc2cccc3ccccc23)NC(=O)[C@H](Cc2ccccc2)NC(=O)CN(Cc2cccc3ccccc23)NC(=O)[C@H](CCCCN)NC1=O [Pep19] (cyclo([azaβ3(1Nal)]F[azaβ3(1Nal)]RRVK))
[1]; 13090
  MIC: 4 (4.5) μM
[2]
  MIC: 8 (9) μM
[3]
  MIC: 8 (9) μM
[4]
  MIC: 8 (9) μM
[5]
  MIC: 16 (18) μM
[6]
  MIC: 8 (9) μM
[7]; 15644
  MIC: 16 (18) μM
[8]; 508
  MIC: 8 (9) μM
[9]
  MIC: 16 (18) μM
[10]; 15643
  MIC: 8 (9) μM
[11]; 750
  MIC: 8 (9) μM
[12]
  MIC: 16 (18) μM
[13]
  MIC: 4 (4.5) μM
[14]
  MIC: >128 µM
[15]; Aus0004
  MIC: 8 (9) μM
[16]
  MIC: 8 (9) μM
[17]
  MIC: 8 (9) μM
[18]
  MIC: 8 (9) μM
[19]; 15638
  MIC: 16 (18) μM
[20]; PM64
  MIC: 8 mg/L^-1
[21]; FORT
  MIC: 8 mg/L^-1
[22]; 702697 HOU
  MIC: 4 mg/L^-1
[23]; COB
  MIC: 2 mg/L^-1
[24]; BCB/POE
  MIC: 8 mg/L^-1
[25]; 740404 DUN
  MIC: 8 mg/L^-1
[26]; ROUS
  MIC: 2 mg/L^-1
[27]; 66534 E
  MIC: 2 mg/L^-1
[28]
  half-life: 24.2 ± 4.33 h
